Assay results: ChEMBL document CHEMBL1212812, “Multi-target spectral moment QSAR versus ANN for antiparasitic drugs against different parasite species” (Bioorg Med Chem, 2010)

Key:
Format in all cases: functional, organism-based
[1] = system: Plasmodium falciparum; assay: Antimicrobial activity against Plasmodium falciparum
[2] = system: Entamoeba histolytica; assay: Antimicrobial activity against Entamoeba histolytica
[3] = system: Leishmania infantum; assay: Antimicrobial activity against Leishmania infantum

SMILES | IC50 [1] | IC50 [2] | IC50 [3]
O=P(O)(O)C(NC1CCCCCC1)P(=O)(O)O [INCADRONIC ACID] | 200 µM | 200 µM | 
Cc1csc(NC(P(=O)(O)O)P(=O)(O)O)n1 | 5 µM | 200 µM | 
O=P(O)(O)C(O)(CCCCNCCCCc1ccccc1)P(=O)(O)O | 200 µM | 21 µM | 
COc1ccc2nc3ccc(NCCCCNc4ccc5nc6ccc(OC)cc6c(Cl)c5c4)cc3c(Cl)c2c1 |  |  | 10 µM
COc1ccc2nc3ccc(N(CCCCCN(c4ccc5nc6ccc(OC)cc6c(N)c5c4)c4ccc5nc6ccc(OC)cc6c(N)c5c4)c4ccc5nc6ccc(OC)cc6c(N)c5c4)cc3c(N)c2c1 |  |  | 2 µM
COc1ccc(C(=O)OCc2ccc3nc4ccc(OC)cc4c(Cl)c3c2)cc1 |  |  | 125 µM
O=P(O)(O)C(Nc1ccccn1)P(=O)(O)O | 200 µM | 200 µM | 
COc1ccc2nc3ccc(CO)cc3c(Cl)c2c1 |  |  | 183 µM
COc1ccc2nc3ccc(CBr)cc3c(Cl)c2c1 |  |  | 6 µM
O=P(O)(O)C(N1CCOCC1)P(=O)(O)O [MORPHOLINOMETHYLENEDIPHOSPHONIC ACID] |  | 200 µM | 
CCOP(=O)(OCC)C(Nc1ncccc1C)P(=O)(OCC)OCC | 200 µM | 200 µM | 
O=P(O)(O)C(Nc1ncccc1OCc1ccccc1)P(=O)(O)O | 200 µM | 200 µM | 
NCCCCCC(O)(P(=O)(O)O)P(=O)(O)O [NERIDRONIC ACID] | 200 µM | 200 µM | 
CCCCCC(C)CNC(P(=O)(O)O)P(=O)(O)O (stereo not given) | 103 µM | 65 µM | 
O=C(O)c1cn(C2CC2)c2cc(N3CCN(CC(P(=O)(O)O)P(=O)(O)O)CC3)c(F)cc2c1=O | 200 µM | 200 µM | 
COc1ccc2nc3ccc(N(CCCCCCCCN(c4ccc5nc6ccc(OC)cc6c(N)c5c4)c4ccc5nc6ccc(OC)cc6c(N)c5c4)c4ccc5nc6ccc(OC)cc6c(N)c5c4)cc3c(N)c2c1 |  |  | 1 µM
O=P(O)(O)C(O)(CCc1cccnc1)P(=O)(O)O | 200 µM | 200 µM | 
CCCNC(P(=O)(O)O)P(=O)(O)O [(PROPYLAMINO)METHYLENEDIPHOSPHONIC ACID] | 200 µM | 200 µM | 
CCc1cccc(NC(P(=O)(O)O)P(=O)(O)O)c1 | 200 µM | 200 µM | 
CCCC(O)(P(=O)(O)O)P(=O)(O)O |  | 200 µM | 
CN(CCOc1ccccc1)CCC(O)(P(=O)(O)O)P(=O)(O)O |  | 6 µM | 
O=P(O)(O)C(CNc1ccccn1)P(=O)(O)O |  | 200 µM | 
COc1ccc2nc3ccc(COC(=O)c4ccc(Cl)cc4)cc3c(N)c2c1 |  |  | 3 µM

SMILES | IC50 [1] | IC50 [2] | IC50 [3]
COc1ccc(C(=O)OCc2ccc3nc4ccc(OC)cc4c(N)c3c2)cc1 |  |  | 2 µM
COc1ccc2nc3ccc(COC(=O)CC(C)C)cc3c(N)c2c1 |  |  | 2 µM
CN(CCCCc1ccccc1)CCCCC(O)(P(=O)(O)O)P(=O)(O)O | 3 µM | 23 µM | 
COc1ccc2nc3ccc(N(CCCCCN(c4ccc5nc6ccc(OC)cc6c(Cl)c5c4)c4ccc5nc6ccc(OC)cc6c(Cl)c5c4)c4ccc5nc6ccc(OC)cc6c(Cl)c5c4)cc3c(Cl)c2c1 |  |  | 2 µM
COc1ccc2nc3ccc(C)cc3c(Cl)c2c1 |  |  | 10 µM
O=P(O)(O)C(Nc1cccc(-c2ccccc2)c1)P(=O)(O)O | 200 µM | 7 µM | 
CCCN(CCC)C(P(=O)(O)O)P(=O)(O)O [(DIPROPYLAMINO)METHYLENEDIPHOSPHONIC ACID] | 200 µM | 200 µM | 
O=P(O)(O)C(O)(Cc1ccccn1)P(=O)(O)O |  | 200 µM | 
O=P(O)(O)C(N(C1CCCCC1)C1CCCCC1)P(=O)(O)O [(DICYCLOHEXYLAMINO)METHYLENEDIPHOSPHONIC ACID] | 200 µM | 200 µM | 
CCCCCCNC(P(=O)(O)O)P(=O)(O)O [(HEXYLAMINO)METHYLENEDIPHOSPHONIC ACID] |  | 200 µM | 
O=P(O)(O)C(Nc1cccnc1Cl)P(=O)(O)O | 200 µM | 200 µM | 
COc1ccc2nc3ccc(N(CCCCCCCN(c4ccc5nc6ccc(OC)cc6c(Cl)c5c4)c4ccc5nc6ccc(OC)cc6c(Cl)c5c4)c4ccc5nc6ccc(OC)cc6c(Cl)c5c4)cc3c(Cl)c2c1 |  |  | 1 µM
CCCCCc1ccc(NC(P(=O)(O)O)P(=O)(O)O)cc1 | 46 µM | 132 µM | 
CCCCCNC(P(=O)(O)O)P(=O)(O)O [(PENTYLAMINO)METHYLENEDIPHOSPHONIC ACID] | 5 µM | 200 µM | 
O=P(O)(O)C(Nc1ncc(Br)cc1Br)P(=O)(O)O | 200 µM | 29 µM | 
O=P(O)(O)CC(c1ccccn1)P(=O)(O)O (stereo not given) | 200 µM | 200 µM | 
CN(C)CCC(O)(P(=O)(O)O)P(=O)(O)O [OLPADRONIC ACID] | 200 µM | 200 µM | 
COc1ccc2nc3ccc(C)cc3c(N)c2c1 |  |  | 1 µM
O=P(O)(O)C(O)(C1CCCCC1)P(=O)(O)O [CYCLOHEXYL(HYDROXY)METHYLENEDIPHOSPHONIC ACID] | 200 µM | 200 µM | 
O=P(O)(O)C(NCCc1ccccc1)P(=O)(O)O [(PHENETHYLAMINO)METHYLENEDIPHOSPHONIC ACID] | 200 µM | 200 µM | 
COc1ccc2nc3ccc(NCCCCCCNc4ccc5nc6ccc(OC)cc6c(Cl)c5c4)cc3c(Cl)c2c1 |  |  | 3 µM
O=P(O)(O)C(Nc1ccc(-c2ccccc2)cc1)P(=O)(O)O |  | 9 µM | 
CCCC(=O)OCc1ccc2nc3ccc(OC)cc3c(N)c2c1 |  |  | 3 µM

SMILES | IC50 [1] | IC50 [2] | IC50 [3]
COc1ccc2nc3ccc(N(CCCCCCN(c4ccc5nc6ccc(OC)cc6c(N)c5c4)c4ccc5nc6ccc(OC)cc6c(N)c5c4)c4ccc5nc6ccc(OC)cc6c(N)c5c4)cc3c(N)c2c1 |  |  | 7 µM
O=P(O)(O)C(O)(C1CCC1)P(=O)(O)O [CYCLOBUTYL(HYDROXY)METHYLENEDIPHOSPHONIC ACID] | 200 µM | 200 µM | 
CCOP(=O)(OCC)C(Nc1cc(C)ccn1)P(=O)(OCC)OCC | 200 µM | 200 µM | 
COC(=O)OCc1ccc2nc3ccc(OC)cc3c(N)c2c1 |  |  | 1 µM
O=P(O)(O)C(O)(Cc1ccncc1)P(=O)(O)O | 200 µM | 200 µM | 
COc1ccc2nc3ccc(N(CCCCCCCN(c4ccc5nc6ccc(OC)cc6c(N)c5c4)c4ccc5nc6ccc(OC)cc6c(N)c5c4)c4ccc5nc6ccc(OC)cc6c(N)c5c4)cc3c(N)c2c1 |  |  | 139 µM
O=P(O)(O)C(Nc1cc(Cl)cc(Cl)c1)P(=O)(O)O [(3,5-DICHLOROPHENYLAMINO)METHYLENEDIPHOSPHONIC ACID] | 200 µM | 200 µM | 
COc1ccc2nc3ccc(NCCCCNc4ccc5nc6ccc(OC)cc6c(N)c5c4)cc3c(N)c2c1 |  |  | 5 µM
CCCC(=O)OCc1ccc2nc3ccc(OC)cc3c(Cl)c2c1 |  |  | 3 µM
CCn1c2ccccc2c2ccc(NC(P(=O)(O)O)P(=O)(O)O)cc21 |  | 200 µM | 
COc1ccc2nc3ccc(COC(=O)c4ccc(Cl)cc4)cc3c(Cl)c2c1 |  |  | 156 µM
COc1ccc2nc3ccc(COC(=O)c4ccccc4)cc3c(Cl)c2c1 |  |  | 137 µM
COc1ccc2nc3ccc(COC(=O)CC(C)C)cc3c(Cl)c2c1 |  |  | 36 µM
COC(=O)OCc1ccc2nc3ccc(OC)cc3c(Cl)c2c1 |  |  | 3 µM
O=P(O)(O)C(O)(CSc1ccncc1)P(=O)(O)O |  | 200 µM | 
COc1ccc2nc3cc(NCCCCCCCNc4ccc5nc6ccc(OC)cc6c(N)c5c4)ccc3c(N)c2c1 |  |  | 9 µM
O=P(O)(O)C(Nc1nccc2ccccc12)P(=O)(O)O |  | 200 µM | 
COc1ccc2nc3ccc(COC(=O)c4ccccc4)cc3c(N)c2c1 |  |  | 35 µM
COc1ccc2nc3ccc(COC(=O)c4ccc(F)cc4)cc3c(N)c2c1 |  |  | 1 µM
COc1ccc2nc3ccc(NCCCCCCNc4ccc5nc6ccc(OC)cc6c(N)c5c4)cc3c(N)c2c1 |  |  | 1 µM
CN(C)CCCN1c2ccccc2Sc2ccc(Cl)cc21 [CHLORPROMAZINE] | 28 µM |  | 
CCCCCCOc1c(OC)cc(NC(C)CCCN)c2nccc(C)c12 (stereo not given) [WR-242511] | 8 µM |  | 
CC1C2c3ccccc3C(c3ccccc32)C1C(=O)Nc1ccncc1 (stereo not given) | 500 µM |  | 

SMILES | IC50 [1] | IC50 [2] | IC50 [3]
CCCCC(O)(P(=O)(O)O)P(=O)(O)O |  | 200 µM | 
CCCCN(CC)C(P(=O)(O)O)P(=O)(O)O [(BUTYL(ETHYL)AMINO)METHYLENEDIPHOSPHONIC ACID] | 200 µM |  | 
CC1C2c3ccccc3C(c3ccccc32)C1C[N+](C)(C)C (stereo not given) | 17 µM |  | 
NC1=NC(c2cccc(Oc3ccc(Cl)cc3)c2)N(c2ccc(Cl)cc2)C(N)=N1 (stereo not given) | 4 µM |  | 
c1ccc2c(c1)ccc1nc3ccccc3nc12 [BENZO[A]PHENAZINE] | 20 µM |  | 
CC(=O)C1C(=O)Nc2ccccc21 (stereo not given) | 29 µM |  | 
CC(C)N(C(C)C)C(P(=O)(O)O)P(=O)(O)O [(DIISOPROPYLAMINO)METHYLENEDIPHOSPHONIC ACID] | 200 µM |  | 
CC1C2c3ccccc3C(c3ccccc32)C1CN(C)C (stereo not given) | 21 µM |  | 
COc1ccc2[nH]c([S+]([O-])Cc3ncc(C)c(OC)c3C)nc2c1 (stereo not given) [OMEPRAZOLE] | 76 µM |  | 
CC(C)NC(=N)NC(=N)Nc1ccc(Cl)c(Cl)c1 [CHLORPROGUANIL] | 9 µM |  | 
COc1ccc2nc3ccc(N(CCCCCCN(c4ccc5nc6ccc(OC)cc6c(Cl)c5c4)c4ccc5nc6ccc(OC)cc6c(Cl)c5c4)c4ccc5nc6ccc(OC)cc6c(Cl)c5c4)cc3c(Cl)c2c1 |  |  | 68 µM
CCc1nc(N)nc(N)c1Cc1ccc(OCc2ccccc2)c(OCc2ccccc2)c1 | 3 µM |  | 
Cc1cccc(NC(P(=O)(O)O)P(=O)(O)O)n1 | 200 µM |  | 
NC1=NC(c2ccc(Oc3ccccc3)cc2)N(c2cccc(Cl)c2)C(N)=N1 (stereo not given) | 3 µM |  | 
NC1=NC(c2ccc(Oc3ccccc3)cc2)N(c2ccc(Cl)cc2)C(N)=N1 (stereo not given) | 7 µM |  | 
CC(C)[C@H](CO)Nc1nc(Nc2cccc(Cl)c2)c2ncn(C(C)C)c2n1 [PURVALANOLA] | 3 µM |  | 
CC1C2c3ccccc3C(c3ccccc32)C1C(=O)Nc1cccnc1 (stereo not given) | 79 µM |  | 
CCCCCCCCCC(O)(P(=O)(O)O)P(=O)(O)O | 1 µM |  | 
COc1ccc2nc3ccc(CBr)cc3c(N)c2c1 |  |  | 4 µM
Cn1cnc2c(NCc3ccccc3)nc(NCCO)nc21 [OLOMOUCINE] | 3 µM |  | 
COc1cc(NC(C)CCCN)c2nccc(C)c2c1OCCCCCc1ccccc1C(F)(F)F (stereo not given) | 5 µM |  | 
NC1=NC(c2cccc(Oc3cc(Cl)cc(Cl)c3)c2)N(c2cccc(Cl)c2)C(N)=N1 (stereo not given) | 6 µM |  | 
N#C/C(C(N)=O)=C1/C(=O)Nc2ccccc21 | 24 µM |  | 
